IC50 data for 59 molecules are collected here from PubChem BioAssay AID2305 (GlaxoSmithKline (GSK), 2010).

pIC50: −log10 of the molar value. Values joined by “and” are separate entries in the source; they are usually repeats but may differ in a detail not shown here. Equal values may be shown once.

This experiment concerns P. falciparum 3D7 growth, pLDH absorbance. Put plainly: blood-stage malaria parasite growth potency – strain 3D7, dose response (AID 2305).
Consider `Cc1cccc(CNc2nccc3[nH]c4ccccc4c23)c1`, for which the pIC50 was 5.72.
Next, `O=C(NCCc1ccc(Cl)c(Cl)c1)C1CCCN(C(=O)c2ccc(O)c(-c3ccc(Cl)c(Cl)c3)c2)C1` (centres undefined): 6.11; `COc1ccc2c(NN=Cc3ccc(Cl)cc3)ccnc2c1`: 6.06.
For the molecule `CCCC(=O)Nc1ccc(OCCCN(Cc2ccccc2OC(F)(F)F)c2ccc(C#N)c(C(F)(F)F)c2)cc1`, the pIC50 was 6.22. This pIC50 and that of the molecule before are within 0.2 log units of each other.
As for `COc1ccc2nc(SC(C)C(=O)c3c[nH]c4ccccc34)[nH]c2c1` (centres undefined), the figure is 5.89.
The molecule `CC1CCN(Cc2ccc(NC(=O)c3cc4ccc5cccnc5c4[nH]3)cc2)CC1` gave a pIC50 of 6.11.
Next, `Cc1ccc(C(=O)Nc2cccc(-c3ccc(N4CCN(C)CC4)nn3)c2)cc1[N+](=O)[O-]`: 6.48.
Next, `NC(=O)c1cnc2cc(-c3ccncc3)cc(Nc3ccc(NC(=O)C4CCCCC4)cc3)c2c1`: 6.64; `Cc1nc(-c2nc(NCc3ccc4c(c3)OCO4)ncc2-c2ccsc2)sc1C`: 7.00.
Next, `O=C(C=Cc1cccs1)Nc1ccc(-c2nc3ccccc3[nH]2)cc1`: 5.94; `O[C@H](c1cc(C(F)(F)F)nc2c(C(F)(F)F)cccc12)[C@@H]1CCCCN1`: 7.15; `CN1CCN(CCCN(Cc2csc(-c3ccc(CNCc4ccccc4)cc3)n2)C(=O)Nc2cccc(Cl)c2)CC1`: 6.10.
In turn, `CCOc1cc(C)ccc1C1CCN(CCCCNC(=O)c2cccc(-c3ccc(C(F)(F)F)cc3)c2)CC1` showed a pIC50 of 6.03.
As for `O=C(NCCCN(Cc1ccc(F)cc1)c1ccccn1)C(c1cc2ccccc2o1)N1CCN(C(c2ccccc2)c2ccccc2)CC1` (centres undefined), the figure is 6.08; as for `CCOC(=O)NCCSC(C)(C)[C@H](NC(=O)[C@H](Cc1cc2ccccc2s1)[C@H](CC)N(O)C=O)C(=O)Nc1nccs1`, 6.52; as for `Cc1nc2ccc3nc(NC(=O)c4ccno4)sc3c2s1`, 6.18.
Next, `CCc1ccc(OCc2ccccc2C(=O)Nc2ccc3nc(C)cc(N)c3c2)cc1`: 6.70.
As for `CC(C)(C)c1ccc(Cn2nc(C(=O)N3CCN(C(=O)C4CCCO4)CC3)c3ccccc32)cc1` (centres undefined), the figure is 5.88; as for `CC1(C)Cc2c([nH]c3ccccc23)C(CCCCCCCCC2=NC(C)(C)Cc3c2[nH]c2ccccc32)=N1`, 6.03.
As to `CCN1CCC(N(CCCCCCc2ccc(C(F)(F)F)cc2)C(=O)Cn2c(CCc3cccc(F)c3F)cc(=O)c3ccccc32)CC1`, the pIC50 is 6.03.
`COCCNCc1ccc(-c2ccc3c(Nc4ccc(F)cc4Cl)ccnc3c2)o1`: the negative logarithm of the IC50 (pIC50) was 6.68.
Turning to `COc1ccccc1CC(C)NCC(O)c1cccc(Cl)c1` (centres undefined), the pIC50 was 6.09.
`O=S(=O)(c1ccc(OCc2ccc(Cl)cc2)cc1)c1cc2c(cc1OCc1ccccc1)CCN(CC1CC1)CC2` had a pIC50 of 5.95. The pIC50 values of the last two molecules are within 0.2 log units of each other.
Next, `C[C@H](Cc1ccc(C[C@@H](C)NCC(O)c2cc(Cl)c(N)c(Cl)c2)cc1)NCC(O)c1cc(Cl)c(N)c(Cl)c1` (some centres undefined): 6.05; `COc1ccc(CN2CCC(N3CCc4cc(NC(=O)c5cc(C)on5)ccc43)C2)cc1Cl` (centres undefined): 6.03.
In the case of `CCc1cn(C)c2c(N3CCCC3=O)cc(C(=O)N[C@@H](Cc3ccccc3)[C@H](O)CNC3CCCCC3)cc12`, the pIC50 was 6.92.
In turn, `Cc1ccc2nc(N(CCCn3ccnc3)C(=O)C=Cc3cccs3)sc2c1` showed a pIC50 of 5.86. This pIC50 lies 1.06 log units lower than the previous one.
Molecule `CCN(CC)C(=O)C(=O)c1c[nH]c2ccc(Cl)cc12` gave a pIC50 of 7.10.
Next, `COc1ccc2nc(C)cc(NN=Cc3ccccc3[N+](=O)[O-])c2c1`: 6.74; `COc1cc(C(=O)NC2CC(C)(C)NC(C)(C)C2)ccc1-c1cc2cc(Cl)c(Cl)cc2[nH]1`: 6.14; `COc1ccc(Cn2c(Nc3cccc(C(F)(F)F)c3)nc3cc(C(=O)NC(C)C)cnc32)cc1Cl`: 6.01.
The molecule `O=C(NCc1cccs1)[C@H](Cc1ccccc1)Nc1ccnc(NCC2CCCCC2)n1` showed a pIC50 of 5.98.
`CC[C@H]1CN2CC[C@@H]1C[C@H]2[C@H](O)c1cc(-c2cccnc2)nc2ccc(OC)cc12` had a pIC50 of 7.40. This pIC50 is 1.42 log units higher than that of the molecule before.
Next, `Cc1ccc([N+](=O)[O-])cc1NC(=O)N(CC(O)c1ccccc1)C1CCCCC1` (centres undefined): 6.14; `Cc1cccc(-c2nc(Nc3ccncc3)c3ccc([N+](=O)[O-])cc3n2)n1`: 6.08.
Next, `COc1cc([N+](=O)[O-])ccc1NC(=O)Nc1ccc(OC(F)(F)F)cc1`: 5.99.
As for `COCCN1CCC(NCC(C)(C)c2nc(-c3ccc(Cl)c(O)c3)c(-c3ccncc3)[nH]2)CC1`, the figure is 6.14; as for `NCCC(=O)Nc1ccc(-c2cnc3[nH]cc(-c4ccc(C(=O)O)cc4)c3c2)cn1`, 6.08.
The molecule `COc1ccc2nccc(NC(=O)C3CCC(NCc4cnc(SC)c([N+](=O)[O-])c4)CC3)c2n1` (centres undefined) showed a pIC50 of 6.03.
Next, `CC(c1cccc(S(=O)(=O)NCc2cccc(C(F)(F)F)c2)c1)N1CCC(N2CCCCC2)CC1` (centres undefined): 6.16.
Next, `O=C(/C=C/c1ccc(Cl)c(Cl)c1)NC1CCC(CN2CCC(c3cc4ccccc4[nH]3)CC2)CC1` (centres undefined): 6.00; `CCN(CC)CCNC(=O)c1ccc(Nc2ncc([N+](=O)[O-])c(Nc3ccccc3OC)n2)cc1`: 6.85.
Next, `FC(F)(F)c1ccc2nc(-c3ccc(-c4ccc(CNCC5CCCO5)cc4)s3)[nH]c2c1` (centres undefined): 6.80.
On to `CCN(CC)CCN(Cc1ccc(-c2ccc(C(F)(F)F)cc2)cc1)C(=O)Cn1nc(-c2ccc(C(F)(F)F)cc2)ccc1=O`, for which the pIC50 was 6.10.
In the case of `COc1ccc(CNCc2ccc(-c3ccc(-c4nc5ccccc5[nH]4)cc3)cc2)cc1`, the negative-log IC50 (pIC50) is 6.62.
Molecule `O=C(/C=C/c1ccc(Cl)cc1Cl)NC1CCC(CN2CCC(c3c[nH]c4ccccc34)CC2)CC1` (centres undefined) showed a pIC50 of 6.10.
Next, `Cc1cccc(CN2CCCN(Cc3ccc(C(=O)Nc4ccc(C(C)(C)C)cc4)cc3)CC2)c1`: 6.14; `Oc1ccc(CCNc2nc(NCc3cccc(-c4cc(C(F)(F)F)ccc4Cl)c3)nc(N3CCNCC3)n2)cc1`: 5.75.
As for `O=C(Nc1cccc(-c2ccc(-c3nc4ccc(F)cc4[nH]3)s2)c1)c1ccncc1`, the figure is 6.15; as for `CN(Cc1cccc(F)c1)C1CCCN(c2cc(NC(=O)c3ccccc3)ccn2)C1` (centres undefined), 6.04; as for `CC(C)Cc1ccc(N2CCN(CCCCNC(=O)c3ccc(NC(=O)c4cc(C(F)(F)F)cc(C(F)(F)F)c4)cc3)CC2)cc1`, 6.74.
The molecule `O=C(Cn1c(CCc2cccc(F)c2F)nc(=O)c2ccccc21)N(CCN1CCCCC1)Cc1ccc(-c2ccc(C(F)(F)F)cc2)cc1` had a pIC50 of 6.12. This pIC50 is 0.62 log units lower than that of the molecule before.
Molecule `CC(CN1CCN(C)CC1)C(=O)Nc1cccc(-c2ccc(-c3nc4ccccc4[nH]3)s2)c1` (centres undefined) gave a pIC50 of 6.20. This pIC50 and that of the molecule before are within 0.2 log units of each other.
Next, `OC(CNCc1ccccc1OCc1ccccc1)c1cccc(C(F)(F)F)c1` (centres undefined): 6.44.
As for `O=C(/C=C/c1cccc(F)c1)NC1CCC(CN2CCC(c3c[nH]c4ccccc34)CC2)CC1` (centres undefined), the figure is 6.06 and 6.15; as for `COc1ccc2nccc([C@@H](O)CN3CCC(NC(=O)c4ccc(Cl)c(OC)c4)CC3)c2c1`, 6.10; as for `COc1ccc(-c2cccc(NC(=O)c3cccc(Cl)c3)c2)cc1CNC(C)C`, 6.14.
Next, `Cc1[nH]c2ccccc2c(=O)c1-c1ccc(Cl)cc1`: 6.00; `Fc1ccc2nc(-c3ccc(-c4cccc(CN5CCCCC5)c4)cc3)[nH]c2c1`: 6.57.
